Assay results from ChEMBL document CHEMBL1201862, “PubChem BioAssay data set” (2004).
Active and inactive are the calls of the source.

Experiments:
[1] = activation of miR-122 Renilla sensor silencing – cell-based, Huh7 psiCHECK-miR122, Renilla luciferase, cherry-picked, dose response (AID 651956); format: functional;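 further: huh7 hepatoma cells stably carrying a psiCHECK-2 miR-122 sensor plasmid; renilla luciferase signal reporting endogenous miR-122 activity after 48 h compound exposure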
Paired box protein Pax-8 = Paired box protein Pax-8 (Homo sapiens, UniProt Q06710); assay: PAX8 transcriptional activity inhibition in RMG-I – RMG-I cells, luciferase, cherry-pick, dose response (AID 687027); format: functional, cell-based;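 further: luciferase reporter driven by Pax8 target thyroperoxidase promoter measured by SteadyGlo luminescence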
Paired box protein Pax-8, sequence (Q06710 whole entry): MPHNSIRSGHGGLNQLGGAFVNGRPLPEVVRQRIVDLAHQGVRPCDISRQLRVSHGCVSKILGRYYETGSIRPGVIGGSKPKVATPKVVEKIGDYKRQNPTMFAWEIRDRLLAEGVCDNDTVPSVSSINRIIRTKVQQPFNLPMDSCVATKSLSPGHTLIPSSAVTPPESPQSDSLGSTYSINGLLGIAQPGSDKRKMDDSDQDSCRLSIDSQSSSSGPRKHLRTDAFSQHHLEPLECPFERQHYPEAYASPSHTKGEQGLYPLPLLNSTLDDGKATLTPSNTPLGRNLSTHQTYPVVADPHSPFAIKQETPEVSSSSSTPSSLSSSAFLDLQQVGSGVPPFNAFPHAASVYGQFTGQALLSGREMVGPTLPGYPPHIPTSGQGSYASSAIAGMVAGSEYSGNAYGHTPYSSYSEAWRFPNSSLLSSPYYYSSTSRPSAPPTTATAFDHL

[2] = general mammalian cell viability loss – activator set, cherry-pick, cytotoxicity control for miR-122 modulator project, dose response (AID 720690); format: functional, cell-based;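 further: HEK293T human cells scored for general mammalian cytotoxicity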
Fatty acid synthase [3] = target: T1, Fatty acid synthase (Homo sapiens, UniProt P49327); assay: inhibition of human FAS-TE enzyme activity – biochemical, endpoint fluorescence intensity, uHTS hits, dose response (AID 624327); format: functional;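 further: fluorescence from hydrolysis of an O-methyl fluorescein acyl ester substrate by the enzyme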
T1 sequence (P49327 whole entry): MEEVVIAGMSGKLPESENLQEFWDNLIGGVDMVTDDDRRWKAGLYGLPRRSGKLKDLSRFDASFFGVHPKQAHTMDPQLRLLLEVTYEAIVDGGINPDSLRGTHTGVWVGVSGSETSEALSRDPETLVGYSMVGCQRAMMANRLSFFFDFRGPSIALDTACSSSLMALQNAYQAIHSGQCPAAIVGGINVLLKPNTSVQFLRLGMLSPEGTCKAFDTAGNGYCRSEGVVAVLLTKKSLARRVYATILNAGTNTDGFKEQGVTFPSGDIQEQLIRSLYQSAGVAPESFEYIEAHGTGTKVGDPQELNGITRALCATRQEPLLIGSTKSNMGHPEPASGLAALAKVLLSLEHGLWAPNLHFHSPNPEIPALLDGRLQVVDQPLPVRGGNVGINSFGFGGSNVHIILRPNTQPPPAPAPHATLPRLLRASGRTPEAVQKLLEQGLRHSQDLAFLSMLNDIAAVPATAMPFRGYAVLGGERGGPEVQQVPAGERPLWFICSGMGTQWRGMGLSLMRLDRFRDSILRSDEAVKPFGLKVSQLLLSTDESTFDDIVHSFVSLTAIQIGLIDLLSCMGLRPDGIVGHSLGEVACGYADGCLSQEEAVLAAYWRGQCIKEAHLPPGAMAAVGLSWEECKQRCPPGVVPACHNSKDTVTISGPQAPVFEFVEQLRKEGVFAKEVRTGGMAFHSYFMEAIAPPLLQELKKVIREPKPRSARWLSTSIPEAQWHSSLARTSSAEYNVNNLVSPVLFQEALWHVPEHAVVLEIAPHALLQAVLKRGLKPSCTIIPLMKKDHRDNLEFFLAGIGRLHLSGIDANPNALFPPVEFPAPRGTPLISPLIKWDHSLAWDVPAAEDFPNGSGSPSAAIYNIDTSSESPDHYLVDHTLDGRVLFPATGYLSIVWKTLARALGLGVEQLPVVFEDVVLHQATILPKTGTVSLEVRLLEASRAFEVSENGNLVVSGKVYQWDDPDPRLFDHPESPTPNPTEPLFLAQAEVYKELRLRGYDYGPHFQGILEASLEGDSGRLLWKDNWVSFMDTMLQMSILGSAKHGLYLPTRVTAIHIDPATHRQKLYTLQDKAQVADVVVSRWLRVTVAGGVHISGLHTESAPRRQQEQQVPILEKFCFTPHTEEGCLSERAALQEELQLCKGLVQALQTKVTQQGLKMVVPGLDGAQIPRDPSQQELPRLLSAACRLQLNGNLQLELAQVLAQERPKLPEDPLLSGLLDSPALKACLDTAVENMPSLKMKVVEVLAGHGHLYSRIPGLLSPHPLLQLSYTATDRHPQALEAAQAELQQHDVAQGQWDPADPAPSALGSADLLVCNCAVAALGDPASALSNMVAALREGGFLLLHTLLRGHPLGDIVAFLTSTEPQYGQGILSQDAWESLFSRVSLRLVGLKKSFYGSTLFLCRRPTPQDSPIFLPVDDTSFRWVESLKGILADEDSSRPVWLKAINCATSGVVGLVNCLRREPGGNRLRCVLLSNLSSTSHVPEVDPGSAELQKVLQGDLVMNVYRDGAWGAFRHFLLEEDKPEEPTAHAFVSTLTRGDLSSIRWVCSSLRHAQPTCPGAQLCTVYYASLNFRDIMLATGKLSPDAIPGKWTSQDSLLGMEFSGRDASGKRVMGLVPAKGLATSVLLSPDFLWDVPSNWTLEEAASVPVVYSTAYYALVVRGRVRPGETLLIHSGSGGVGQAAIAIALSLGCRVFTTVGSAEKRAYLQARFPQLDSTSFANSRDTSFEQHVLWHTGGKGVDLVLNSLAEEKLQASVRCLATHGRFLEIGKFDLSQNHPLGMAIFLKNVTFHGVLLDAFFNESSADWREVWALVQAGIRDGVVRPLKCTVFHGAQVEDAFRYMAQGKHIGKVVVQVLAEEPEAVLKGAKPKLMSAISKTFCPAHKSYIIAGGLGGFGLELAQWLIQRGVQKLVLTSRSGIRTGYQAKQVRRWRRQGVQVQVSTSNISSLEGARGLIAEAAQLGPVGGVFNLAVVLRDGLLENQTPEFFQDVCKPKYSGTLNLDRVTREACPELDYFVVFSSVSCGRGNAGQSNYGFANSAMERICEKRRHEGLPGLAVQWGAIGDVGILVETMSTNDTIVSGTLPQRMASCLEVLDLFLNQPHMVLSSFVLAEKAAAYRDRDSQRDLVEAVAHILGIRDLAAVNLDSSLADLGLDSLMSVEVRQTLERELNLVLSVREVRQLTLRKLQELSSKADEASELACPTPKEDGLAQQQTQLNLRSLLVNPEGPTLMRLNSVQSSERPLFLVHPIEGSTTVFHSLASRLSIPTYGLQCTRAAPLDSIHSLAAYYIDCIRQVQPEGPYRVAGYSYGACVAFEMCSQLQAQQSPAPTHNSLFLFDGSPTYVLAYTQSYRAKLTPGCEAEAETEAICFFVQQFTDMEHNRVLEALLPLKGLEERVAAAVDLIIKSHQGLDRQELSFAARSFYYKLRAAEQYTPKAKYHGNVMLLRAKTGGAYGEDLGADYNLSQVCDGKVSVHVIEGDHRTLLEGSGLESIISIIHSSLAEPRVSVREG

Fatty acid synthase [4] = target: T1, Fatty acid synthase; assay: inhibition of human FAS-TE enzyme activity – biochemical, kinetic fluorescence intensity, dose response (AID 624326); format: functional;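 further: rate of fluorescence rise from hydrolysis of a fluorogenic O-methyl fluorescein ester substrate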
Albumin = Albumin (Bos taurus, UniProt P02769); assay: Counterscreen for inhibitors of T-cell receptor (TCR)-CD3 interaction: Fluorescence-based biochemical high throughput dose response assay to identify inhibitors of T-cell receptor (TCR)-CD3 interaction using a TAMRA-labeled BSA probe.; format: functional
Albumin, sequence (P02769 whole entry): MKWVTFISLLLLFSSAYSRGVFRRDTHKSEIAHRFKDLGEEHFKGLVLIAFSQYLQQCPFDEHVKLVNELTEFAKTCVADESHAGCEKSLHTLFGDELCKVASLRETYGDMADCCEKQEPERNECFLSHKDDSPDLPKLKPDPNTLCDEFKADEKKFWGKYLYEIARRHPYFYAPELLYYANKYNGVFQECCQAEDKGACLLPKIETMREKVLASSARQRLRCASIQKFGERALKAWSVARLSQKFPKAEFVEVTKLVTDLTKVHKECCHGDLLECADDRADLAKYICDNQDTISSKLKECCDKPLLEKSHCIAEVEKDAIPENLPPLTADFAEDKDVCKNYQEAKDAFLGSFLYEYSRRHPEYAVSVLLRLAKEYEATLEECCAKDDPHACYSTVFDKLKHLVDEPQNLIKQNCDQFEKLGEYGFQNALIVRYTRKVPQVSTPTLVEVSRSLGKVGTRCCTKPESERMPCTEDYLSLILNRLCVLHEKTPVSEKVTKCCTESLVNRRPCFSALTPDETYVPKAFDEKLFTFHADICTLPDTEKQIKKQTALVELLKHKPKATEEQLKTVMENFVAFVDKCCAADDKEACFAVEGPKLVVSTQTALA

BJ [5] = assay: BJ-TERT fibroblast viability loss – cell-based, RAS-independent, luminescence, dose response (AID 1933); format: functional; conditions: Homo sapiens
cells [6] = format: functional, cell-based
BJ [7] = assay: cells; format: functional, cell-based; conditions: Homo sapiens
[8] = target: Luciferin 4-monooxygenase (Photinus pyralis, UniProt P08659); assay: inhibition of purified Photinus pyralis luciferase – biochemical, luminescence, dose response (AID 1891)
Luciferin 4-monooxygenase, sequence (P08659 whole entry): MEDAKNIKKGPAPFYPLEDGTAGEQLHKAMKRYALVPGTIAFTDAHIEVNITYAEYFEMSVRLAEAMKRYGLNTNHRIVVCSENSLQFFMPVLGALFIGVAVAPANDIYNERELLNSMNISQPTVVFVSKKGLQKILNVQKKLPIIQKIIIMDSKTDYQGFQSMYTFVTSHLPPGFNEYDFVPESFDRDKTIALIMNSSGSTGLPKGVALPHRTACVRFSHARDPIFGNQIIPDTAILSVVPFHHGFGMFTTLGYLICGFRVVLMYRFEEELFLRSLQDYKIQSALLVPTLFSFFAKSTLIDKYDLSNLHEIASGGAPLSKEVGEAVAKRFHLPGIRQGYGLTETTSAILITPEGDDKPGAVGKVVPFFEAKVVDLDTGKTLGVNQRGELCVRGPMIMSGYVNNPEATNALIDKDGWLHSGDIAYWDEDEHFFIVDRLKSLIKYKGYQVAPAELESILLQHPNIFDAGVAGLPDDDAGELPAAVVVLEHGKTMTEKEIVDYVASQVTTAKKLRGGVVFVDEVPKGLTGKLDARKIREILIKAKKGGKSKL

[9] = Luminescence Cell-Based Dose Confirmation HTS to Identify Inhibitors of Platelet Dense Granule Release. [Related pubchem assays: 1663 (Primary HTS), 1678 (Summary of Project)]; format: functional
[10] = Trypanosoma cruzi growth suppression in host cells – NIH3T3 host cells, beta-gal luminescence, confirmation (AID 2044); format: functional, cell-based;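 further: intracellular parasites grown in NIH/3T3 mouse fibroblasts as host cells; luminescent beta-galactosidase reporter signal from transgenic T. cruzi replicating inside host cells; inhibitors lower the luminescence signal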
cells [11] = format: functional, cell-based; remark: listed apart in the source
[12] = NIH3T3 cell viability loss – ATP luminescence, mouse fibroblasts, counter-screen, dose response (AID 2010); format: functional, cell-based;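 further: cells exposed to compound for about 90 hours before reading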
BJ [13] = assay: BJ-TERT-LT-ST fibroblast viability loss – cell-based, RAS-independent, luminescence, dose response (AID 1935); format: functional; conditions: Homo sapiens;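 further: BJ fibroblasts immortalized with TERT plus LT and ST oncogenes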
[14] = DRD fibroblast viability loss – cell-based, non-viral oncogenic, luminescence, dose response (AID 1934); format: functional; conditions: Homo sapiens
Caspase-3 = target: T2, Caspase-3 (Homo sapiens, UniProt P42574); format: functional;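 further: Dose-response selectivity test against caspase-3 for candidate inhibitors of sentrin-specific proteases (SENPs)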
T2 sequence (P42574 whole entry): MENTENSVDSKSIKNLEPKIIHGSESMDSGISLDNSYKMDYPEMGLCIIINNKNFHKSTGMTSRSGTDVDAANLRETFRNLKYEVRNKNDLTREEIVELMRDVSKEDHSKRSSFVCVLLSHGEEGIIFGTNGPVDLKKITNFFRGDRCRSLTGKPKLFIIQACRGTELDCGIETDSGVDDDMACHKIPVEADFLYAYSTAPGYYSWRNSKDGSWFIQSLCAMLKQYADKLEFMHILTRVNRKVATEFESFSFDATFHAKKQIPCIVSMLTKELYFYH

[15] = target: T3, Sentrin-specific protease 7 (Homo sapiens, UniProt Q9BQF6); format: functional;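 further: Luminescence-based dose-response confirmation of ultra-high-throughput screening hits, measuring inhibition of SENP7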
T3 sequence (Q9BQF6 whole entry): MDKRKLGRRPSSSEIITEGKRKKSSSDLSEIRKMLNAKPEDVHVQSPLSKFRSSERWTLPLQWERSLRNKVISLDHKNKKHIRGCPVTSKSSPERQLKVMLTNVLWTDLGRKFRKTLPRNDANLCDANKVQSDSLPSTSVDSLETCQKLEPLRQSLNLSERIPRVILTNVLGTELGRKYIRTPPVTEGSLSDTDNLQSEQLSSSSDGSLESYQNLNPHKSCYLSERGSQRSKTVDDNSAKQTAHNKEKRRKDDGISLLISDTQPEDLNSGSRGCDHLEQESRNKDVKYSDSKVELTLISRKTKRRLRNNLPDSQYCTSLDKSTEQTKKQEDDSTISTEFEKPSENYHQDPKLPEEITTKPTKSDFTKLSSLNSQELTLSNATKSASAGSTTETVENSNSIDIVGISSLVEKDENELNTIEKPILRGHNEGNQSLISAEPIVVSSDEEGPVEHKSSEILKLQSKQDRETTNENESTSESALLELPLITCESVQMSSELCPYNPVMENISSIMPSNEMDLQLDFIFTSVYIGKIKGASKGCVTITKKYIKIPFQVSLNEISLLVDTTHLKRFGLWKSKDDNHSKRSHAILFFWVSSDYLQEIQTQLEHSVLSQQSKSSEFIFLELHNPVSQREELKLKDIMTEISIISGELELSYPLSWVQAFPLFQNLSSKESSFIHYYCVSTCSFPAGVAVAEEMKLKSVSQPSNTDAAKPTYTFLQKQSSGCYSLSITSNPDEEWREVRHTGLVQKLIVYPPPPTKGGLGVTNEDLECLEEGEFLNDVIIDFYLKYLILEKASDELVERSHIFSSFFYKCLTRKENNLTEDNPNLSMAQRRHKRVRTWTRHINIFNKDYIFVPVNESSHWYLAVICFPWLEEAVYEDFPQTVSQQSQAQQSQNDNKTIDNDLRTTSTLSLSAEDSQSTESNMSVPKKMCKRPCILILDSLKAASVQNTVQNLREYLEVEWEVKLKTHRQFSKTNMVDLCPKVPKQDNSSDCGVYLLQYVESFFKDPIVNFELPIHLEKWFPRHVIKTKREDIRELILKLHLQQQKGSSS

[16] = target: T4, Sentrin-specific protease 6 (Homo sapiens, UniProt Q9GZR1); format: functional;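 further: Luminescence-based dose-response confirmatory assay of SENP6 inhibition, following up an ultra-high-throughput screen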
T4 sequence (Q9GZR1 whole entry): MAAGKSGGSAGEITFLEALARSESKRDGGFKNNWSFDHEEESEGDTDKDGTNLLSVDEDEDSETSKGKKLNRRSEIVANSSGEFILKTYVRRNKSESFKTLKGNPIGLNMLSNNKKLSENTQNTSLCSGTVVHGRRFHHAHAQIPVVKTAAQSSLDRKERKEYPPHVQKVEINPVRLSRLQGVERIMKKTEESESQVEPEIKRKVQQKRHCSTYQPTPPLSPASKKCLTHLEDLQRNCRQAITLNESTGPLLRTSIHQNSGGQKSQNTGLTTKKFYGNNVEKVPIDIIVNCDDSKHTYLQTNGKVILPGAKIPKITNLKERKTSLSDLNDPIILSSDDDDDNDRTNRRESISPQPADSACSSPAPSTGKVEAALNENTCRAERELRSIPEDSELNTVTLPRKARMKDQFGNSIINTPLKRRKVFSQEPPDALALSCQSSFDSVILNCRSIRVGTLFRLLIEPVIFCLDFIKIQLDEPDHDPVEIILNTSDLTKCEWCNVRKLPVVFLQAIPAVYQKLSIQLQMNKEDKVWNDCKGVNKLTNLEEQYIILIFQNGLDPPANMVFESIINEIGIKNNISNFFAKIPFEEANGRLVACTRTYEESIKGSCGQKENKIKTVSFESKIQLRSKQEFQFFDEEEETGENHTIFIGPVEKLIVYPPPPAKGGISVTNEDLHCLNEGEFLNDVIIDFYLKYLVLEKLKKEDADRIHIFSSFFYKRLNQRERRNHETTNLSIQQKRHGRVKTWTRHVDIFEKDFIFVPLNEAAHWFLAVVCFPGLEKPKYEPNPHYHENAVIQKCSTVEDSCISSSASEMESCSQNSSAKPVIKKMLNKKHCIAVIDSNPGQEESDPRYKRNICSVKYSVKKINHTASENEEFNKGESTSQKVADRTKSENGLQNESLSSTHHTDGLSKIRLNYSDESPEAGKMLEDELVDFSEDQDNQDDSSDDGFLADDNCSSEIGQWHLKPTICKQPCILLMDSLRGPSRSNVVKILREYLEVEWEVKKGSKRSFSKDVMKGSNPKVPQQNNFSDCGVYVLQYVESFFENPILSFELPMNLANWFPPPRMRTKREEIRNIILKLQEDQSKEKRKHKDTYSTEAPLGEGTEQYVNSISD

[17] = target: T5, Sentrin-specific protease 8 (Homo sapiens, UniProt Q96LD8); format: functional;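 further: luminescence read-out of SENP8 inhibition, dose-response confirmation following an ultra-high-throughput screen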
T5 sequence (Q96LD8 whole entry): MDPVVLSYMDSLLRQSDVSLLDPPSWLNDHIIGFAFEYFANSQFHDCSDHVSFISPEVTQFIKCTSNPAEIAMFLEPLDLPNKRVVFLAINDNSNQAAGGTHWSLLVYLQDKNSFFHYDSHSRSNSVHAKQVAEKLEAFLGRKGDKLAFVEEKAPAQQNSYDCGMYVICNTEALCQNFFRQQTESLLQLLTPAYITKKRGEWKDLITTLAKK

INS1 = assay: INS-1E survival protection against cytokine death – cell-based, luminescence, retest, dose response (AID 449756); format: functional; conditions: Rattus norvegicus;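 further: cell death triggered by IL-1 beta plus TNF-alpha plus IFN-gamma mixture; protective hits raise ATP signal compared with cytokine alone wells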
[18] = viability loss in HepG2 hepatoma cells – cell-based, ATP luminescence, cherry-pick, activator set 2, cytotoxicity control, dose response (AID 1053143); format: functional
[19] = general mammalian cell viability loss – inhibitor set, cherry-pick, set 2, cytotoxicity control for miR-122 modulator project, dose response (AID 720697); format: functional, cell-based
[20] = inhibition of bursicon-driven LGR2 cAMP signaling – cell-based, HEK293, CRE-luciferase reporter, cherry pick, dose response (AID 743342); format: functional
[21] = CMV-driven luciferase expression suppression in HEK293 – cell-based, luminescence, dry powder, counter-screen for Pax8 inhibitor project, dose response (AID 743020); format: functional
[22] = OVCAR-3 cell viability loss – plate reader, dry powder samples, PAX8 inhibitor project, dose response (AID 743044); format: functional, cell-based
[23] = IGROV1 cell killing – plate reader, dry powder samples, PAX8 inhibitor project, dose response (AID 743043); format: functional, cell-based; conditions: IGROV-1
[24] = OVCAR8 cell viability loss – plate reader, dry powder samples, PAX8 project, dose response (AID 743197); format: functional, cell-based; conditions: OVCAR-8

CNC[C@@H]1Oc2cc(C#CC3CCCCC3)ccc2S(=O)(=O)N([C@@H](C)CO)C[C@@H]1C
AC50 [1]: 1.39 µM (active) | AC50 (Paired box protein Pax-8): 25.3 µM (active) | AC50 [2]: 19.4 µM (active)

COc1cc([N+](=O)[O-])cc(/C=N/NC(=O)c2cc(C)nc3ccccc23)c1O
IC50 (Fatty acid synthase [3]): 15.5 µM (active) | IC50 (Fatty acid synthase [4]): 11.7 µM (active) | IC50 (Albumin): > 94.1 µM (inactive)

CCN(CC)c1ccc(/C=N/NC(=O)c2ccoc2C)c(O)c1
EC50 (BJ [5]): 3.02 µM (active) | EC50 (cells [6]): 51.7 µM (active) | EC50 (BJ [7]): 6.42 µM (active) | EC50 [8]: 785 nM (active) | EC50 [9]: 2.06 µM (active) | EC50 [10]: 830 nM (active) | EC50 (cells [11]): 7.38 µM (active) | EC50 [12]: 3.59 µM (active) | EC50 (BJ [13]): 15.6 µM (active) | EC50 [14]: 6.96 µM (active) | IC50 (Caspase-3): 942 nM (active) | IC50 [15]: 757 nM (active) | IC50 [16]: 849 nM (active) | IC50 [17]: 1.33 µM (active) | AC50 (INS1): 622 nM (active) | AC50 [18]: 9.01 µM (active)

CN1C(=O)c2cc(NC(=O)c3cccs3)ccc2OC[C@H]2O[C@@H](CC(=O)N3CCCCC3)CC[C@H]21
AC50 [19]: 9.9 µM (active)

C[C@H]1CCCCO[C@H](CN(C)C(=O)Nc2cccc3ccccc23)[C@@H](C)CN([C@@H](C)CO)C(=O)c2cc(NS(=O)(=O)c3cn(C)cn3)ccc2O1
AC50 [20]: 47 µM (active)

C[C@H]1CCCCO[C@H](CN(C)C(=O)c2ccccc2)[C@@H](C)CN([C@@H](C)CO)C(=O)c2cc(NC(=O)Nc3ccc(C(F)(F)F)cc3)ccc2O1
AC50 (Paired box protein Pax-8): 9.48 µM (active) | AC50 [21]: 30.1 µM (active) | AC50 [22]: 29.5 µM (active) | AC50 [23]: 37.6 µM (active) | AC50 [24]: 47.8 µM (active)
